According to article PMC6199744, “Development of Chemical Proteomics for the Folateome and Analysis of the Kinetoplastid Folateome” (ACS Infectious Diseases, 2018):

Tested on: L. major lysate proteins
Test: Multitargeted bead mixture chemoproteomics, single concentration competition, proteome-wide
Assay type: binding
Conditions: for fold change: vehicle control = 1

NCCCNc1ccc(C(=O)NC(CCC(=O)O)C(=O)O)cc1 (stereo not drawn) [compound 7]
fold change vs vehicle control (protein LMJF.28.0110 PROTEASOME BETA 3 SUBUNIT, PUTATIVE): 0.99 | fold change vs vehicle control (protein LMJF.28.0490 PROPIONYL-COA C[…] CHAIN, PUTATIVE): 1.21 | fold change (protein LMJF.28.0710 HYPOTHETICAL PROTEIN, CONSERVED (SNARE associated Golgi protein, putative)): 0.86 | fold change vs vehicle control (protein LMJF.28.0930 HYPOTHETICAL PROTEIN, CONSERVED): 0.98 | fold change vs vehicle control (protein LMJF.28.0960 40S RIBOSOMAL PROTEIN S14): 0.99 | fold change vs vehicle control (protein LMJF.28.1530 ATP DEPENDENT DEAD-BOX HELICASE, PUTATIVE): 0.89 | fold change relative to vehicle control (protein LMJF.28.1730, PROTEASOME REGULATORY NON-ATP-ASE SUBUNIT 2, PUTATIVE): 1.27 | fold change relative to vehicle control (protein LMJF.28.2310, EUKARYOTIC TRANSLATION INITIATION FACTOR, PUTATIVE): 0.98 | fold change vs vehicle control (protein LMJF.28.2430 VACUOLAR ATP SYNTHASE SUBUNIT B, PUTATIVE): 1.03 | fold change relative to vehicle control (protein LMJF.28.2770, HEAT-SHOCK PROTEIN HSP70, PUTATIVE): 1.05 | fold change (protein LMJF.28.2910 GLUTAMATE DEHYDROGENASE, PUTATIVE): 0.88 | fold change vs vehicle control (protein LMJF.29.0120 PROTEASOME REGULATORY NON-ATPASE SUBUNIT, PUTATIVE): 1.1 | fold change (protein LMJF.29.0620 ATP-BINDING CASSETTE PROTEIN SUBFAMILY A, MEMBER 10, PUTATIVE): 0.79 | fold change vs vehicle control (protein LMJF.29.0760 […] BI[…], PUTATIVE,HEAT SHOCK PROTEIN 90, PUTATIVE): 1.16 | fold change relative to vehicle control (protein LMJF.29.0850, HIGH MOBILITY GROUP PROTEIN HOMOLOG TDP-1, PUTATIVE): 0.78 | fold change vs vehicle control (protein LMJF.29.0940 HY[…], CONSERVED): 1.11 | fold change vs vehicle control (protein LMJF.29.1160 TRYPAREDOXIN): 0.93 | fold change vs vehicle control (protein LMJF.29.1240 HY[…], UNKNOWN FUNCTION): 1.04 | fold change vs vehicle control (protein LMJF.29.1270 100 kDa heat shock protein (Hsp100)): 1.12 | fold change vs vehicle control (protein LMJF.29.1310 CARNITINE/CHOLINE ACETYLTRANSFERASE, PUTATIVE): 1 | fold change relative to vehicle control (protein LMJF.29.1760, PARAFLAGELLAR ROD PROTEIN 1D, PUTATIVE): 1.2 | fold change vs vehicle control (protein LMJF.29.1780 DIPHTHAMIDE SYNTHESIS PROTEIN, PUTATIVE): 0.94 | fold change (protein LMJF.29.2200 GTP-BINDING PROTEIN, PUTATIVE (dynamin-1-like protein)): 0.93 | fold change (protein LMJF.29.2310 ENOYL-COA HYDRATASE/ISOMERASE-LIKE PROTEIN): 0.93 | fold change vs vehicle control (protein LMJF.29.2360 ASPARTYL AMINOPEPTIDASE, PUTATIVE,METALLO-PEPTIDASE, CLAN MH, FAMILY M20): 1.05 | fold change (protein LMJF.29.2860 40S RIBOSOMAL PROTEIN S19-LIKE PROTEIN): 1.02 | fold change (protein LMJF.30.0580 HYPOTHETICAL PROTEIN, CONSERVED (AMP-binding enzyme, putative)): 0.85 | fold change (protein LMJF.30.0850 SURFACE PROTEIN AMASTIN, PUTATIVE): 0.92 | fold change vs vehicle control (protein LMJF.30.1250 PYRIDOXAL KINASE, PUTATIVE): 1.11 | fold change vs vehicle control (protein LMJF.30.2580 RETICULON DOMAIN PROTEIN, 22 KDA POTENTIALLY AGGRAVATING PROTEIN (PAPLE22)): 0.95 | fold change relative to vehicle control (protein LMJF.30.3090, HY[…], CONSERVED (RNA-binding protein 42, putative)): 1.06 | fold change vs vehicle control (protein LMJF.30.3240 GLUTAMYL-TRNA SYNTHETASE, PUTATIVE): 0.99 | fold change (protein LMJF.30.3430 HYPOTHETICAL PROTEIN, CONSERVED (protein mkt1, putative)): 1 | fold change (protein LMJF.30.3520 S-ADENOSYLMETHIONINE SYNTHETASE): 0.93 | fold change (protein LMJF.30.3570 ZINC FINGER-DOMAIN PROTEIN, PUTATIVE): 0.92 | fold change relative to vehicle control (protein LMJF.31.0080, HY[…], CONSERVED): 1.21 | fold change vs vehicle control (protein LMJF.31.0340 AMINO ACID PERMEASE, PUTATIVE): 1.04 | fold change (protein LMJF.31.1130 N-ACYL-L-AMINO ACID AMIDOHYDROLASE, PUTATIVE): 1.03 | fold change vs vehicle control (protein LMJF.31.1640 THIOLASE PROTEIN-LIKE PROTEIN): 0.99 | fold change relative to vehicle control (protein LMJF.31.2150, PROSTAGLANDIN F2-ALPHA SYNTHASE/D-ARABINOSE DEHYDROGENASE): 2.99 | fold change vs vehicle control (protein LMJF.31.2250 3,2-TRANS-ENOYL-COA ISOMERASE, MIT[…], PUTATIVE): 1.97 | fold change vs vehicle control (protein LMJF.32.0750 RNA BINDING PROTEIN, PUTATIVE): 0.99 | fold change vs vehicle control (protein LMJF.32.1060 DYNEIN, PUTATIVE): 1.08 | fold change relative to vehicle control (protein LMJF.32.1820, IRON […], PUTATIVE): 1.09 | fold change relative to vehicle control (protein LMJF.32.2320, C-14 STEROL REDUCTASE, PUTATIVE): 1.65 | fold change vs vehicle control (protein LMJF.32.3870 MYOSIN XXI): 0.92 | fold change relative to vehicle control (protein LMJF.33.0240, THIOL-DEPENDENT REDUCTASE 1): 1.07 | fold change (protein LMJF.33.0280 HYPOTHETICAL PROTEIN, CONSERVED): 0.96 | fold change relative to vehicle control (protein LMJF.33.0890, HYPOTHETICAL PROTEIN, CONSERVED): 0.93 | fold change vs vehicle control (protein LMJF.33.1070 HY[…], UNKNOWN FUNCTION): 1.09 | fold change vs vehicle control (protein LMJF.33.1330 CYSTEINE CONJUGATE BETA-LYASE, AMINOTRANSFERASE- LIKE PROTEIN): 0.98 | fold change (protein LMJF.33.1590 HYPOTHETICAL PROTEIN, CONSERVED (3-ketoacyl-CoA reductase, putative)): 1 | fold change relative to vehicle control (protein LMJF.33.1860, ATP-BINDING CASSETTE PROTEIN SUBFAMILY D, MEMBER 3, PUTATIVE): 1.06 | fold change relative to vehicle control (protein LMJF.33.2340, SUCCINYL-COA:3-KETOACID-COENZYME A TRANSFERASE, MIT[…], PUTATIVE): 1.19 | fold change relative to vehicle control (protein LMJF.33.2440, HY[…], CONSERVED): 1.14 | fold change relative to vehicle control (protein LMJF.33.2540, CARBOXYPEPTIDASE, PUTATIVE,METALLO-PEPTIDASE, CLAN MA(E), FAMILY M32): 1.06 | fold change (protein LMJF.33.3150 40S RIBOSOMAL PROTEIN S13, PUTATIVE): 0.96 | fold change relative to vehicle control (protein LMJF.34.0140, MALATE DEHYDROGENASE): 6.88 | fold change vs vehicle control (protein LMJF.34.0440 RIBOSOMAL PROTEIN S25): 1.13 | fold change relative to vehicle control (protein LMJF.34.2580, HY[…], CONSERVED (ALBA-domain protein 3)): 1.04 | fold change relative to vehicle control (protein LMJF.34.3250, PUTATIVE PYRUVATE/INDOLE-PYRUVATE CARBOXYLASE, PUTATIVE): 1.08 | fold change (protein LMJF.34.4370 20S PROTEASOME BETA 7 SUBUNIT, (PUTATIVE)): 0.97 | fold change vs vehicle control (protein LMJF.34.4620 HYPOTHETICAL PROTEIN, CONSERVED): 1.3 | fold change (protein LMJF.35.0070 PROHIBITIN, PUTATIVE): 1.03 | fold change vs vehicle control (protein LMJF.35.0360 ENOYL-COA HYDRATASE/ISOMERASE FAMILY PROTEIN, CONSERVED): 1.09 | fold change (protein LMJF.35.0370 ATP-DEPENDENT DEAD-BOX RNA HELICASE, PUTATIVE): 0.98
